Values quoted from earlier work as cited in patent publication US20100137787A1, “Delivery devices for modulating inflammation” (Searete LLC, a limited liability corporation of the State …, priority 2008, published 2010).

Key:
Toll-like receptor 4 = Toll-like receptor 4 (Homo sapiens, UniProt O00206)
[1] = single agent, infused at 400 mg over one hour

Sequence of Toll-like receptor 4 (O00206 24-839, species assumed): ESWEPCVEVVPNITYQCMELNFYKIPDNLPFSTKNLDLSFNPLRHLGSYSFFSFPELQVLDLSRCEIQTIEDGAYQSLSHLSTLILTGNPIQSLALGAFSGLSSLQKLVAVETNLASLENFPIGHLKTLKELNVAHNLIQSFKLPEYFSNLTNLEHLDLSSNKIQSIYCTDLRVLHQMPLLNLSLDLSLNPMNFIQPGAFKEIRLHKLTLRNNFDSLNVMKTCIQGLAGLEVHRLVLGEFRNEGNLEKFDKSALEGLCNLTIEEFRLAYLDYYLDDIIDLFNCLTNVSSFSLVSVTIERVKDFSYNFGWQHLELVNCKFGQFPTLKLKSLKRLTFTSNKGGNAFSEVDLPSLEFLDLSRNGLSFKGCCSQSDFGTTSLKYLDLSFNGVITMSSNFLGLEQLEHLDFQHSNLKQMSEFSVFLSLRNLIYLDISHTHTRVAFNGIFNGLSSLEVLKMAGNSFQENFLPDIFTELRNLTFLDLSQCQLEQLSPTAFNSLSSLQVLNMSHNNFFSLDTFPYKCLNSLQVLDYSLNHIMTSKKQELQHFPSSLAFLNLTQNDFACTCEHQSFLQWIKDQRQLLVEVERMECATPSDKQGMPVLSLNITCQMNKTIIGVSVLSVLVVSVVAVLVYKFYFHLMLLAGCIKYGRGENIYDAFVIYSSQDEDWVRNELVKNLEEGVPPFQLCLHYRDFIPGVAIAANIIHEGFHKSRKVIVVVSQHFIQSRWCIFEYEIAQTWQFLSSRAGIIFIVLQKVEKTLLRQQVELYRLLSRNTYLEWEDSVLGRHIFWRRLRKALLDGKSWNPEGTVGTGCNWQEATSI

Cl.Cl.Nc1ccccc1Oc1ccc2c(N)nsc2c1 [Example M62812, 3-amino-6-(2-aminophenoxy)-1,2-benzisothiazole dihydrochloride]
inhibitor of Toll-like receptor 4 (Toll-like receptor 4): inhibitor of Toll-like receptor 4

CCN(CC)CCCC(C)Nc1ccnc2cc(Cl)ccc12.O=P(O)(O)O.O=P(O)(O)O (stereo not shown) [chloroquine phosphate, 7-chloro-4-[[4-(diethylamino)-1-methylbutyl]amino]quinoline phosphate (1:2)]
tolerability of infusion [1]: without complication

CCN(CC)C(=S)SSC(=S)N(CC)CC [disulfiram, 1-(diethylthiocarbamoyldisulfanyl)-N,N-diethyl-methanethioamide]
inhibition of aldehyde dehydrogenase (aldehyde dehydrogenase): inhibits | toxicity accompanying aldehyde dehydrogenase inhibition (aldehyde dehydrogenase): without toxicity
